Patent US11485728B2, “Small molecules for the treatment of autoimmune diseases and cancer” (Athos Therapeutics, Inc., priority 2020, dated 2022)

Assays:
[1] = In-vitro half-life in rat liver microsomes; type: in vitro ADME; settings: Rat liver microsomes 0.5 mg/mL; 1 μg/mL drug; NRS; read-out: Metabolic Half-life
Method: In each of the species (human, rat, mouse) of liver matrix to be tested, a working concentration of 2 μg/mL was prepared of each test article from the 0.5 mg/mL DMSO stock solution by adding 3 μL of 0.5 mg/mL test article stock solution to 747 μL of the 1 mg/mL liver matrix. Incubation was performed at 37±2° C. with gentle, continuous mixing in shaking water bath in 2.0 mL-well capacity 96-Deepwell plates (96-DWP). Samples were retrieved in duplicate at the following time points: 0, 5, 10, 15, 30 and 60 minutes. The final mixture contained 1 μg/mL of drug and 0.5 mg/mL of liver matrix. First, 50 μL of test articles in liver matrix was added to the 96-DWP and pre-warmed the mixture in the 96-DWP for 2 minutes in the 37° C. water bath. The enzymatic reaction was started by the addition of 50 μL of the corresponding 2× NADPH regenerating system (NRS) cofactor solution to all sample wells and stopped by the addition of 300 μL of stop solution (acetonitrile containing 10 ng/mL Tolbutamide as an internal standard (I.Std.). The samples were agitated for 10 minutes and then centrifuged for 20 minutes at 4500 rpm. 25 μL of supernatant was diluted with 475 μL acetonitrile containing I. Std. into a new 96-DWPs for LC-MS/MS analysis.
Half-life calculations were generated and calculated by Graphpad Prism® software. The half-life of test compound was calculated based on the first-order reaction kinetics. The data was transformed to linear regression (y=log(y) where “y” axis represents the % compound remaining at any given time with respect to time 0 minutes; “x” axis represents time in minutes) in order to calculate the half-life.
A comparison of metabolic stability in time-course incubation experiments in varying species of liver can provide information of pharmacokinetic properties of drugs attributable to species-related differences in hepatic metabolism. The results of these experiments often assist in further applications such as assessing in vitro metabolite profiling and choosing relevant species for toxicology studies based on similarities relative to the metabolic stability to the human profile. For these experiments, the test compound was tested in parallel with a positive control, Dasatinab, in an enzymatic reaction solution of each species (human and rat) of liver microsomes containing a NADPH regenerating system (NRS). The final mixture contained 1 μg/mL of drug and 0.5 mg/mL of liver matrix. Incubations were performed at 37±2° C. with gentle, continuous mixing in shaking water bath in 96-Deep well plates. The stability of the test compound is monitored using fast, specific and sensitive LC/MS/MS analysis.

CYP2C8 = target: T1, CYP2C8 (Homo sapiens, UniProt P10632); assay: CYP-direct inhibition, CYP2C8; type: in vitro ADME
T1 construct: from tissue; host or cells: pooled human liver microsomes
T1 sequence (P10632 1-490): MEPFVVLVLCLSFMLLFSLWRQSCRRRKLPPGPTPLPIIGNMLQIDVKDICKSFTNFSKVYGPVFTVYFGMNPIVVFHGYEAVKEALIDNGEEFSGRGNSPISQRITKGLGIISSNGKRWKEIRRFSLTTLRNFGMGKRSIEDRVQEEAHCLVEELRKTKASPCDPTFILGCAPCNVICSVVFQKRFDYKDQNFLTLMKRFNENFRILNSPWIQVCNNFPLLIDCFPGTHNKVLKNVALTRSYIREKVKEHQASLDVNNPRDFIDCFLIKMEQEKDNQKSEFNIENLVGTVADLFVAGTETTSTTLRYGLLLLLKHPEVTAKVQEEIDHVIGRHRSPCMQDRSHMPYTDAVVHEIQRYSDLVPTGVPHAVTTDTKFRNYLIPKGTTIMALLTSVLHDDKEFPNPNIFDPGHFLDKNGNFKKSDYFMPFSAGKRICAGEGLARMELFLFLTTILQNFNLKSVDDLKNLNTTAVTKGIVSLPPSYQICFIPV
Method: Many drugs inhibit cytochrome P450 enzymes to cause clinically significant changes in the pharmacokinetics of other drugs. In vitro cytochrome P450 inhibition, can provide crucial information in evaluating potential clinical drug-drug interactions and is useful for focusing in vivo tests to areas of concern. The cytochrome P450 inhibition assay was developed by preparing a working cocktail solution consisting of six probe substrates 10 μM ethoxy-resorufin (CYP1A2), 100 μM rosiglitazone (CYP2C8), 50 μM diclofenac (CYP2C9), 300 μM S-mephenytoin (CYP2C19), 50 μM dextromethorphan (CYP2D6), and 20 μM midazolam (CYP3A4). A mixture solution consists of 140 uL of 0.286 mg/mL of pooled human liver microsome working solution and 20 uL working solutions of test articles, standard control inhibitors, or positive control placebo and 20 uL of substrate cocktail mixture working solution was prepared. The mixture solution was pre-warm in a gentle shaking bath at 37±2° C. for 5 minutes. The enzymatic reaction started by adding 20 uL of NRS working solution to the mixture solution and incubated for 10 minutes at 37±2° C. To stop the reaction, an addition of 400 μL cold stop solution (acetonitrile containing 50 ng/mL Tolbutamide as an internal standard (I.Std.) was added to the mixture solution. The final concentration of test article, inhibitors, substrates, and cofactors are noted in Table 0.1 below. Two individual samples were prepared for each test compound. The extracted samples were vortexed and then centrifuged at 4500 rpm for 7 minutes using Eppendorf Centrifuge 5910R. 200 uL of supernatant was diluting with 200 uL of 50% Methanol into 96-DW plate for LC/MS/MS analysis
Concentration-response plots are used to determine the effects of an inhibitor on an enzymatic reaction. A typical concentration-response plot provides fractional activity (Y axis) is plotted as a function of log inhibitor concentration (X axis). The data are fitted using a standard Sigmoidal dose-response equation which is also called a […] logistic equation. The concentration of compound that results in 50% inhibition of maximal activity is termed as the IC50 (inhibitor concentration yielding 50% inhibition). IC50 value is calculated using Prism GraphPad software, version 9. […].
Cytochrome P450 inhibition of a drug is a key factor in determining pharmacokinetic drug-drug interactions. The objective of this study was to evaluate the inhibition potential of G9a inhibitors on six (6) major human cytochrome P450 enzymes, including CYP1A2, CYP2C8, CYP2C9, CYP2C19, CYP2D6, and CYP3A4. Inhibition was determined by using a substrate cocktail and analyzing the rate of specific metabolites formation. The cytochrome P450 inhibition assay was developed using a cocktail consisting of six (6) probe substrates ethoxy-resorufin (CYP1A2), rosiglitazone (CYP2C8), diclofenac (CYP2C9), S-mephenytoin (CYP2C19), dextromethorphan (CYP2D6), and midazolam (CYP3A4). The cocktail was incubated in human liver microsome with NADPH regenerating system (NRS) in a shaking bath at 37±2° C. The formation of specific metabolites was monitored by LC/MS/MS. Test compound was added to the cocktail-liver microsome mixture at varying concentrations and its effect on cytochrome P450 activity was determined by analyzing the rate of specific metabolite formation. The percent inhibition was calculated and plotted with reference to the concentration, and the IC50 value for inhibition was derived by fitting the data with a using log(inhibitor) vs. normalized response with variable slope least squares fit by Graphpad Prism® software. […].

SMILES | half-life at 1 μg/mL [1] [h] | IC50 (CYP2C8) [µM]
COc1cc2c(NCC3CCN(C)CC3)nc(N3CCC(F)(F)CC3)nc2cc1OCCCN1CCCC1 [Compound 5, 2-(4,4-difluoropiperidin-1-yl)-6-methoxy-N-((1-methylpiperidin-4-yl)methyl)-7-(3-(pyrrolidin-1-yl)propoxy)quinazolin-4-amine] | > 1 | > 100
COCCN1CCC(Nc2nc(N3CCC(F)(F)CC3)nc3cc(OCCCN4CCCC4)c(OC)cc23)CC1 [Compound 3, 2-(4,4-difluoropiperidin-1-yl)-6-methoxy-N-(1-(2-methoxyethyl)piperidin-4-yl)-7-(3-(pyrrolidin-1-yl)propoxy)quinazolin-4-amine] | > 1 | > 100
COc1cc2c(NC3CCS(=O)(=O)CC3)nc(N3CCC(F)(F)CC3)nc2cc1OCCCN1CCCC1 [Compound 1, 4-((2-(4,4-difluoropiperidin-1-yl)-6-methoxy-7-(3-(pyrrolidin-1-yl)propoxy)quinazolin-4-yl)amino)tetrahydro-2H-thiopyran 1,1-dioxide] | > 1 | 89.1
COc1cc2c(NC3CCN(C(C)C)CC3)nc(N3CCC3)nc2cc1OCCCN1CCCC1 [Compound 234, 2-(azetidin-1-yl)-N-(1-isopropylpiperidin-4-yl)-6-methoxy-7-(3-(pyrrolidin-1-yl)propoxy)quinazolin-4-amine] | > 1 | > 100
COc1cc2c(N[C@@H]3CCCNC3)nc(N3CCCC3)nc2cc1OCCCN1CCCC1 [Compound 159, (R)-6-methoxy-N-(piperidin-3-yl)-2-(pyrrolidin-1-yl)-7-(3-(pyrrolidin-1-yl)propoxy)quinazolin-4-amine] | 0.555 | > 100
COc1cc2c(NC3CCOCC3)nc(N3CCC3)nc2cc1OCCCN1CCCC1 [Compound 174, 2-(azetidin-1-yl)-6-methoxy-7-(3-(pyrrolidin-1-yl)propoxy)-N-(tetrahydro-2H-pyran-4-yl)quinazolin-4-amine] | > 1 | > 100

Now from value to compound:

half-life at 1 μg/mL [1] [h] | IC50 (CYP2C8) [µM] | SMILES
> 1 | 23.4 | COc1cc2c(NC3CCS(=O)(=O)CC3)nc(N3CCCC3)nc2cc1OCCCN1CCCC1 [Compound 80, 4-((6-methoxy-2-(pyrrolidin-1-yl)-7-(3-(pyrrolidin-1-yl)propoxy)quinazolin-4-yl)amino)tetrahydro-2H-thiopyran 1,1-dioxide]
> 1 | > 100 | COc1cc2c(NC3CCOCC3)nc(N3CCN(C)CC3)nc2cc1OCCCN1CCCC1 [Compound 236, 6-methoxy-2-(4-methylpiperazin-1-yl)-7-(3-(pyrrolidin-1-yl)propoxy)-N-(tetrahydro-2H-pyran-4-yl)quinazolin-4-amine]
> 1 | > 100 | COc1cc2c(NC3CCN(C(C)C)CC3)nc(C#N)nc2cc1OCCCN1CCCC1 [Compound 235, 4-((1-isopropylpiperidin-4-yl)amino)-6-methoxy-7-(3-(pyrrolidin-1-yl)propoxy)quinazoline-2-carbonitrile]
> 1 | > 100 | COc1cc2c(NC3CCS(=O)(=O)CC3)nc(N3CCN(C)CC3)nc2cc1OCCCN1CCCC1 [Compound 109, 4-((6-methoxy-2-(4-methylpiperazin-1-yl)-7-(3-(pyrrolidin-1-yl)propoxy)quinazolin-4-yl)amino)tetrahydro-2H-thiopyran 1,1-dioxide]
0.367 | 95.5 | COc1cc2c(NC3CCOCC3)nc(N3CCCN(C)CC3)nc2cc1OCCCN1CCCC1 [Compound 237, 6-methoxy-2-(4-methyl-1,4-diazepan-1-yl)-7-(3-(pyrrolidin-1-yl)propoxy)-N-(tetrahydro-2H-pyran-4-yl)quinazolin-4-amine]
0.617 | 75.7 | COc1cc2c(Nc3ccncc3)nc(N3CCC(F)(F)CC3)nc2cc1OCCCN1CCCC1 [Compound 7, 2-(4,4-difluoropiperidin-1-yl)-6-methoxy-N-(pyridin-4-yl)-7-(3-(pyrrolidin-1-yl)propoxy)quinazolin-4-amine]
> 1 | 91.8 | COc1cc2c(NC3CCOCC3)nc(N3CCCC3)nc2cc1OCCCN1CCCC1 [Compound 164, 6-methoxy-2-(pyrrolidin-1-yl)-7-(3-(pyrrolidin-1-yl)propoxy)-N-(tetrahydro-2H-pyran-4-yl)quinazolin-4-amine]
